According to patent US12378268B2, “Heterocyclic THR-β receptor agonist compound and preparation method and use therefor” (Hepagene Therapeutics (HK) Limited, priority 2019, dated 2025):

What was measured:
THR-β = molecular target: T1, THR-β (Homo sapiens, UniProt P10828); assay: Test of the binding ability of the compound to TRβ (TRβ LBD/RXR, biotin-SRC2-2 co-activating peptide, 665/615 nm fluorescence ratio); type: biochemical; settings: for Emax: activity relative to positive control; for α/β selectivity (multiple): calculated after being standardized with T3
T1 construct: TRB LBD, GST purchased from Thermo Fisher; purchased Thermo Fisher PV4762
Description: 1. Main experimental materials and instruments:
Biotin-SRC2-2 co-activating peptide purchased from Sangon Biotech (Shanghai) Co., Ltd.
TRB LBD, GST purchased from Thermo Fisher (product No. PV4762)
Europium-conjugated anti-glutathione antibody purchased from Cisbio (product No. 61GSTKLB)
Streptavidin-D2 purchased from Cisbio (product No. 610SADAB)
(§1) 4.2 The activity percentage was calculated as follows: […]
(§2) RatioCompound: Average of the relative ratios of the compound wells of the embodiments
(§3) RatioPositive: Average of the relative ratios of all positive control wells.
(§4) RatioBlank: Average of the relative ratios of all negative control wells.
(§5) EC50 was calculated by fitting the relationship between activity (%) and compound logarithmic concentration with Graphpad 5.0 by a nonlinear regression method.
(§6) Y=Bottom+ (top-bottom)/(1+10^((LogEC50−X)*slope))
(§7) X: Compound logarithmic concentration Y: Percentage activity

THR-α = molecular target: T2, THR-α (Homo sapiens, UniProt P10827); assay: Test of the binding ability of the compound to TRα (TRα LBD/RXRα, biotin-SRC2-2 co-activating peptide, 665/615 nm fluorescence ratio); type: biochemical; settings: for Emax: activity relative to positive control
T2 construct: TR-a LBD, GST purchased from Thermo Fisher; purchased Thermo Fisher PV4762
Description: as §1, §2, §3, §4, §5, §6, §7

T1 sequence (P10828 217-461 limits assumed, other chains not shown): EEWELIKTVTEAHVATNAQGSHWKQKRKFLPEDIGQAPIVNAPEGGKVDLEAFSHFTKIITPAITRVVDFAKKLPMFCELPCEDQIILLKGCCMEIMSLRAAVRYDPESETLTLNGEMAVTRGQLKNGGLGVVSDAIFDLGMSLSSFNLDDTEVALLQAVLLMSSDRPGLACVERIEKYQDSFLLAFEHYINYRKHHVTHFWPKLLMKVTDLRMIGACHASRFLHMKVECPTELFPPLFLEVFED
T1 sequence (P28702 whole entry partner, other chains not shown, the tested form may be a part): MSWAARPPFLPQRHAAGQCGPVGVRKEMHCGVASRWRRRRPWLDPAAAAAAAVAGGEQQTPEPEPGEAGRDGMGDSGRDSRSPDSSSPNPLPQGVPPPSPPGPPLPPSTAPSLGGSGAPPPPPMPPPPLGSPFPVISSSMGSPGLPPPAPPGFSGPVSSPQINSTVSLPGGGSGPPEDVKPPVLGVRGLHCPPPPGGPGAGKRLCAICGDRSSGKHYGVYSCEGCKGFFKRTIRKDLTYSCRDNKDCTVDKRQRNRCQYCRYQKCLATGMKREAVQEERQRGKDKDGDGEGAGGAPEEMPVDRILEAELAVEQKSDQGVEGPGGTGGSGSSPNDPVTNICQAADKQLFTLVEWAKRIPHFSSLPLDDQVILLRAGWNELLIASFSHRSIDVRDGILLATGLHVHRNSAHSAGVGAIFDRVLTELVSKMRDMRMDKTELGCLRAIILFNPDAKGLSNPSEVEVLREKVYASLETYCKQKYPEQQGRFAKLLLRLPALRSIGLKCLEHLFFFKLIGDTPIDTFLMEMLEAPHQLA
T2 sequence (P10827 163-410 isoform P10827-2 limits assumed, other chains not shown): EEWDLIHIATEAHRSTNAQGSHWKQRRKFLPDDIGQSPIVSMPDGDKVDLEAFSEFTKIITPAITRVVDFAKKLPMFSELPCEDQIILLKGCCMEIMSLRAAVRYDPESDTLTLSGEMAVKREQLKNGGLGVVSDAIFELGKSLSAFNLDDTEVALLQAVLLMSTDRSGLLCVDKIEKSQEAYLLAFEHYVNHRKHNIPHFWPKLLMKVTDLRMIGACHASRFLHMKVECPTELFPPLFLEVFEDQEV
T2 sequence (P19793 whole entry partner, other chains not shown, the tested form may be a part): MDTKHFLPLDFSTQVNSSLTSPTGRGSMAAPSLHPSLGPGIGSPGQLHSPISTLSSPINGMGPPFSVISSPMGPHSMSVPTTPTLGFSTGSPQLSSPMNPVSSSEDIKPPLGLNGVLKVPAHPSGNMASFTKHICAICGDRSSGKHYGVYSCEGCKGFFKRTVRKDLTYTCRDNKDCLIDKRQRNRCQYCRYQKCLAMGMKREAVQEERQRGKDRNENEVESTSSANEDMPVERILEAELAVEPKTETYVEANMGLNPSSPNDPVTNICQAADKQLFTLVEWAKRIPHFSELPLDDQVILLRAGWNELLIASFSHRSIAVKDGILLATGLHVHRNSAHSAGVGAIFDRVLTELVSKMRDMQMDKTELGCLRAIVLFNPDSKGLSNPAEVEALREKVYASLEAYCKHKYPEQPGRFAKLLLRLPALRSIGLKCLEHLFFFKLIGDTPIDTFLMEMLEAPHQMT

SMILES	EC50 (THR-β)	Emax (THR-β)	α/β selectivity (multiple) (THR-β)	EC50 (THR-α)	Emax (THR-α)
Cc1cc(OCP(=O)(O)O)cc(C)c1Cc1ccc(O)c2ccccc12 [A, ((4-((4-hydroxynaphthyl-1-yl)methyl)-3,5-dimethylphenoxy)methyl) phosphoric acid, reference compound]	0.109 µM	100%	4.7 multiple	0.28 µM	106%
Cc1cc(OCP(=O)(O)O)cc(C)c1Cc1ccc(O)c2c1CCCC2 [B, reference compound]	0.041 µM	111%	11.4 multiple	0.23 µM	106%
Cc1cc(OCP(=O)(O)O)cc(C)c1Cc1ccc(O)c2c1CCC2C (stereo not drawn) [Compound 2]	< 0.1 µM	104%	–	< 0.2 µM	98.3%
Cc1cc(OCP(=O)(O)O)cc(C)c1Cc1ccc(O)c2c1CCCC2(C)C [Compound 3]	0.104 µM	100%	4.8 multiple	0.27 µM	105%
Cc1cc(OCP(=O)(O)O)cc(C)c1Cc1ccc(O)c2c1CCCCC2(C)C [Compound 4, ((4-((4-hydroxy-5,5-dimethyl-6,7,8,9-tetrahydro-5H-benzo[7]annun-1-yl)methyl)-3,5-dimethylphenoxy)methyl) phosphoric acid]	> 1 µM	–	–	> 10 µM	–
